ChEMBL document CHEMBL1681651, “A broad spectrum anticancer nucleoside with selective toxicity against human colon cells in vitro” (2011)

Columns and labels:
Assay type in all cases: functional
[1] = system: HOP-92; experiment: Growth inhibition of human HOP92 cells assessed as cell growth at 1 mM after 48 hrs by SRB assay; details: HOP-92, 48 h, read-out: Activity
[2] = system: UACC-257; experiment: Growth inhibition of human UACC257 cells assessed as cell growth at 0.1 uM after 48 hrs by SRB assay; details: UACC-257, 48 h, read-out: Activity
[3] = system: LOX IMVI; experiment: Growth inhibition of human LOXIMVI cells assessed as cell growth at 1 mM after 48 hrs by SRB assay; details: read-out: Activity
[4] = system: NCI-H322M; experiment: Growth inhibition of human NCI-H322M cells assessed as cell growth at 10 uM after 48 hrs by SRB assay; details: read-out: Activity
[5] = system: BT-549; experiment: Growth inhibition of human BT549 cells assessed as cell growth at 1 mM after 48 hrs by SRB assay; details: BT-549, 48 h, read-out: Activity
[6] = system: M14; experiment: Growth inhibition of human M14 cells assessed as cell growth at 10 uM after 48 hrs by SRB assay; details: M14, 48 h, read-out: Activity
[7] = system: NCI-H522; experiment: Growth inhibition of human NCI-H522 cells after 48 hrs by […] growth inhibition assay; details: NCI-H522, 48 h
[8] = system: OVCAR-8; experiment: Growth inhibition of human OVCAR8 cells assessed as cell growth at 1 uM after 48 hrs by SRB assay; details: OVCAR-8, 48 h, read-out: Activity
[9] = system: SK-MEL-2; experiment: Growth inhibition of human SK-MEL-2 cells assessed as cell growth at 0.1 uM after 48 hrs by SRB assay; details: SK-MEL-2, 48 h, read-out: Activity
[10] = system: SK-MEL-5; experiment: Growth inhibition of human SK-MEL-5 cells assessed as cell growth at 100 uM after 48 hrs by SRB assay; details: SK-MEL-5, 48 h, read-out: Activity
[11] = system: Malme-3M; experiment: Growth inhibition of human MALME-3M cells after 48 hrs by […] growth inhibition assay
[12] = system: NCI-H23; experiment: Growth inhibition of human NCI-H23 cells after 48 hrs by […] growth inhibition assay; details: NCI-H23, 48 h
[13] = system: Malme-3M; experiment: Growth inhibition of human MALME-3M cells assessed as cell growth at 100 uM after 48 hrs by SRB assay; details: read-out: Activity
[14] = system: SK-OV-3; experiment: Growth inhibition of human SKOV3 cells assessed as cell growth at 1 mM after 48 hrs by SRB assay; details: SK-OV-3, 48 h, read-out: Activity
[15] = system: HCT-15; experiment: Growth inhibition of human HCT15 cells assessed as cell growth at 10 uM after 48 hrs by SRB assay; details: HCT-15, 48 h, read-out: Activity
[16] = system: HCT-116; experiment: Growth inhibition of human HCT116 cells assessed as cell growth at 0.1 uM after 48 hrs by SRB assay; details: HCT-116, 48 h, read-out: Activity
[17] = system: BT-549; experiment: Growth inhibition of human BT549 cells assessed as cell growth at 10 uM after 48 hrs by SRB assay; details: BT-549, 48 h, read-out: Activity
[18] = system: NCI-H226; experiment: Growth inhibition of human NCI-H226 cells after 48 hrs by […] growth inhibition assay; details: NCI-H226, 48 h
[19] = system: DU-145; experiment: Growth inhibition of human DU145 cells assessed as cell growth at 1 mM after 48 hrs by SRB assay; details: DU-145, 48 h, read-out: Activity
[20] = system: SK-MEL-2; experiment: Growth inhibition of human SK-MEL-2 cells assessed as cell growth at 1 mM after 48 hrs by SRB assay; details: SK-MEL-2, 48 h, read-out: Activity
[21] = system: CCRF-CEM; experiment: Growth inhibition of human CCRF-CEM cells assessed as cell growth at 0.1 uM after 48 hrs by SRB assay; details: read-out: Activity
[22] = system: SF-295; experiment: Growth inhibition of human SF295 cells assessed as cell growth at 10 uM after 48 hrs by SRB assay; details: SF-295, 48 h, read-out: Activity
[23] = system: KM12; experiment: Growth inhibition of human KM12 cells assessed as cell growth at 100 uM after 48 hrs by SRB assay; details: KM12, 48 h, read-out: Activity
[24] = system: U-251; experiment: Growth inhibition of human U251 cells assessed as cell growth at 1 uM after 48 hrs by SRB assay; details: U-251, 48 h, read-out: Activity
[25] = system: M14; experiment: Growth inhibition of human M14 cells after 48 hrs by […] growth inhibition assay; details: M14, 48 h
[26] = system: MDA-MB-435; experiment: Growth inhibition of human MDA-MB-435 cells assessed as cell growth at 1 mM after 48 hrs by SRB assay; details: MDA-MB-435, 48 h, read-out: Activity
[27] = Growth inhibition of human […] cells after 48 hrs by […] growth inhibition assay
[28] = system: RXF 393; experiment: Growth inhibition of human RXF393 cells assessed as cell growth at 10 uM after 48 hrs by SRB assay; details: RXF 393, 48 h, read-out: Activity
[29] = system: NCI-H460; experiment: Growth inhibition of human NCI-H460 cells assessed as cell growth at 0.1 uM after 48 hrs by SRB assay; details: NCI-H460, 48 h, read-out: Activity
[30] = system: T47D; experiment: Growth inhibition of human T47D cells assessed as cell growth at 0.1 uM after 48 hrs by SRB assay; details: read-out: Activity
[31] = system: 786-0; experiment: Growth inhibition of human 786-0 cells assessed as cell growth at 100 uM after 48 hrs by SRB assay; details: 786-0, 48 h, read-out: Activity
[32] = system: COLO 205; experiment: Growth inhibition of human COLO205 cells assessed as cell growth at 100 uM after 48 hrs by SRB assay; details: COLO 205, 48 h, read-out: Activity
[33] = system: SNB-75; experiment: Growth inhibition of human SNB75 cells assessed as cell growth at 1 uM after 48 hrs by SRB assay; details: SNB-75, 48 h, read-out: Activity
[34] = read-out: LC50 (the source's name)
[35] = read-out: pLC50 (the source's name) (converted)

SMILES: CNC(=O)NC[C@H]1O[C@@H](n2cnc3c(NC(=O)Nc4ccccc4)ncnc32)[C@H](O[Si](C)(C)C(C)(C)C)[C@@H]1O[Si](C)(C)C(C)(C)C
- growth at 1000 µM [1]: -50%
- growth at 0.1 µM [2]: 97%
- growth at 1000 µM [3]: -77%
- growth at 10 µM [4]: 105%
- growth at 1000 µM [5]: -36%
- growth at 10 µM [6]: 105%
- GI50 ([7]; read-out: GI50): 2.39 µM
- CC50 [7, 34]: > 100 µM
- TGI ([7]; read-out: TGI): 7.14 µM
- GI50 ([7]; read-out: pGI50 (converted)): 2.4 µM
- CC50 [7, 35]: > 100 µM
- TGI ([7]; read-out: pTGI (converted)): 7.08 µM
- growth at 1 µM [8]: 106%
- growth at 0.1 µM [9]: 108%
- growth at 100 µM [10]: -42%
- GI50 ([11]; read-out: GI50): 2.98 µM
- LC50 (concentration killing 50% of cells) ([11]; read-out: LC50): > 100 µM
- TGI ([11]; read-out: TGI): 9.84 µM
- GI50 ([11]; read-out: pGI50 (converted)): 2.95 µM
- LC50 (concentration killing 50% of cells) ([11]; read-out: pLC50 (converted)): > 100 µM
- TGI ([11]; read-out: pTGI (converted)): 9.77 µM
- GI50 ([12]; read-out: GI50): 3.17 µM
- CC50 [12, 34]: 86 µM
- TGI ([12]; read-out: TGI): 9.07 µM
- GI50 ([12]; read-out: pGI50 (converted)): 3.16 µM
- CC50 [12, 35]: 85.1 µM
- TGI ([12]; read-out: pTGI (converted)): 9.12 µM
- growth at 100 µM [13]: -1%
- growth at 1000 µM [14]: 8%
- growth at 10 µM [15]: 100%
- growth at 0.1 µM [16]: 107%
- growth at 10 µM [17]: 103%
- GI50 ([18]; read-out: GI50): 3.1 µM
- CC50 [18, 34]: > 100 µM
- TGI ([18]; read-out: TGI): 8.63 µM
- GI50 ([18]; read-out: pGI50 (converted)): 3.09 µM
- CC50 [18, 35]: > 100 µM
- TGI ([18]; read-out: pTGI (converted)): 8.71 µM
- growth at 1000 µM [19]: -89%
- growth at 1000 µM [20]: -67%
- growth at 0.1 µM [21]: 104%
- growth at 10 µM [22]: 111%
- growth at 100 µM [23]: -66%
- growth at 1 µM [24]: 102%
- GI50 ([25]; read-out: GI50): 4.33 µM
- CC50 [25, 34]: 93.8 µM
- TGI ([25]; read-out: TGI): 18.5 µM
- GI50 ([25]; read-out: pGI50 (converted)): 4.37 µM
- CC50 [25, 35]: 93.3 µM
- TGI ([25]; read-out: pTGI (converted)): 18.6 µM
- growth at 1000 µM [26]: -10%
- GI50 ([27]; read-out: GI50): 3.27 µM
- CC50 [27, 34]: > 100 µM
- TGI ([27]; read-out: TGI): > 100 µM
- GI50 ([27]; read-out: pGI50 (converted)): 3.31 µM
- CC50 [27, 35]: > 100 µM
- TGI ([27]; read-out: pTGI (converted)): > 100 µM
- growth at 10 µM [28]: 111%
- growth at 0.1 µM [29]: 104%
- growth at 0.1 µM [30]: 101%
- growth at 100 µM [31]: -83%
- growth at 100 µM [32]: -95%
- growth at 1 µM [33]: 95%

SMILES: CNC(=O)OC[C@H]1O[C@@H](n2cnc3c(NC(=O)Nc4ccccc4)ncnc32)[C@H](O[Si](C)(C)C(C)(C)C)[C@@H]1O[Si](C)(C)C(C)(C)C
- growth at 10 µM [4]: 118%
- growth at 10 µM [6]: 102%
- growth at 10 µM [15]: 103%
- growth at 10 µM [22]: 108%
- growth at 10 µM [28]: 94.2%
